Measured values from paper PMC8865417, “Receptor Interaction Profiles of 4-Alkoxy-3,5-Dimethoxy-Phenethylamines (Mescaline Derivatives) and Related Amphetamines” (Frontiers in Pharmacology, 2022).

Experiments:
[1] = target: T1, dopaminergic hD2 receptor (Homo sapiens, UniProt P14416); test: Radioligand binding at dopaminergic hD2 receptor ([3H]spiperone)
T1 construct: expressed in transfected cells; host or cells: HEK 293 cells (membrane preparations)

[2] = target: T2, hα1A adrenergic receptor (Homo sapiens, UniProt P35348); test: Radioligand binding at hα1A adrenergic receptor ([3H]prazosin); conditions: mean ± SD
T2 construct: expressed in transfected cells; host or cells: Chinese hamster ovary cells (membrane preparations)
T2 sequence (P35348 1-466): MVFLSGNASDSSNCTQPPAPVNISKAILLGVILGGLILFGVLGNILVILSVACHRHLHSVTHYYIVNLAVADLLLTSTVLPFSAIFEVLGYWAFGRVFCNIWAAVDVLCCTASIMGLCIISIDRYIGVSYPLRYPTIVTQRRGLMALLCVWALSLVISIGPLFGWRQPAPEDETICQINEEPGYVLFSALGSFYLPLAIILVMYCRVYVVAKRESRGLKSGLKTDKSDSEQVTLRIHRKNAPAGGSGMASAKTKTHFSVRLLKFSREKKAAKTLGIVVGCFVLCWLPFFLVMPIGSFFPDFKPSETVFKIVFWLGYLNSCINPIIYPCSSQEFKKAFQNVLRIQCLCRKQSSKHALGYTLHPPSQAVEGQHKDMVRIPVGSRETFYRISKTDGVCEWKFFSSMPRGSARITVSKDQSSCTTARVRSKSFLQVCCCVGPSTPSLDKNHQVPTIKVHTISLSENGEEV

[3] = test system: humans; conditions: ref Trachsel 2012; cited from earlier work
[4] = target: T3, hDAT (Homo sapiens, UniProt Q01959); test: Radioligand binding at hDAT ([3H]WIN35,428)
T3 construct: expressed in transfected cells; host or cells: HEK 293 cells (membrane preparations)

[5] = target: T4, h5-HT1A receptor (Homo sapiens, UniProt P08908); test: Radioligand binding at h5-HT1A receptor ([3H]8-OH-DPAT)
T4 construct: expressed in transfected cells; host or cells: HEK 293 cells (membrane preparations)
T4 sequence (P08908 1-422): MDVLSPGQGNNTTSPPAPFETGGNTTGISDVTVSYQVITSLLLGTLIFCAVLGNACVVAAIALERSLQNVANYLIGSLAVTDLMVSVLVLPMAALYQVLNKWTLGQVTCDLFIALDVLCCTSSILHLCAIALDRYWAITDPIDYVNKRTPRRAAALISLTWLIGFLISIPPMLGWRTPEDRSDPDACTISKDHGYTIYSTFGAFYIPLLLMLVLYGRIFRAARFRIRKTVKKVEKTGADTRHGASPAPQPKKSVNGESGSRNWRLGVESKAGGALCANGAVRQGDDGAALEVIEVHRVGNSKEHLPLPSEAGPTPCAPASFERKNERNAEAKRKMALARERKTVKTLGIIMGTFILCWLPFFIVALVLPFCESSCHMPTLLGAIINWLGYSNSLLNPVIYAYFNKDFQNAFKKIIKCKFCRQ

[6] = target: T5, hSERT (Homo sapiens, UniProt P31645); test: Radioligand binding at hSERT ([3H]citalopram)
T5 construct: expressed in transfected cells; host or cells: HEK 293 cells (membrane preparations)

[7] = test system: head twitch response; design: method as in Halberstadt et al. (2019); conditions: ref Halberstadt et al. (2019); cited from earlier work

T3 sequence (Q01959 whole entry): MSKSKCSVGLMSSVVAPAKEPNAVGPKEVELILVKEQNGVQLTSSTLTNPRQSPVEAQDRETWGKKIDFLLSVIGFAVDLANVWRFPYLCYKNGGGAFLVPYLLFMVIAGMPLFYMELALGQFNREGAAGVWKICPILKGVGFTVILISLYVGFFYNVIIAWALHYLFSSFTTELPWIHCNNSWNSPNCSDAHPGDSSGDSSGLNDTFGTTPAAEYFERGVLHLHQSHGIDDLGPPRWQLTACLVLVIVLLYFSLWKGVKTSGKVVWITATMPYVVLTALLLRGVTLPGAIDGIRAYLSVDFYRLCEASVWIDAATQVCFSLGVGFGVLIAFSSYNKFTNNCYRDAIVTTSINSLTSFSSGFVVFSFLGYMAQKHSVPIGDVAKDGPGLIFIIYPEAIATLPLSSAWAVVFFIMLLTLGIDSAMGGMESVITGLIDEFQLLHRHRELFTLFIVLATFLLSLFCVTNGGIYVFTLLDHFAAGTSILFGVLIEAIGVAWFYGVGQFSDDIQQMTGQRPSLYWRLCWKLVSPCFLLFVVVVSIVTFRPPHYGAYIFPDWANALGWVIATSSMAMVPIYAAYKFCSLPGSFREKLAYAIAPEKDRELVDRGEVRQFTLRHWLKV
T5 sequence (P31645 whole entry): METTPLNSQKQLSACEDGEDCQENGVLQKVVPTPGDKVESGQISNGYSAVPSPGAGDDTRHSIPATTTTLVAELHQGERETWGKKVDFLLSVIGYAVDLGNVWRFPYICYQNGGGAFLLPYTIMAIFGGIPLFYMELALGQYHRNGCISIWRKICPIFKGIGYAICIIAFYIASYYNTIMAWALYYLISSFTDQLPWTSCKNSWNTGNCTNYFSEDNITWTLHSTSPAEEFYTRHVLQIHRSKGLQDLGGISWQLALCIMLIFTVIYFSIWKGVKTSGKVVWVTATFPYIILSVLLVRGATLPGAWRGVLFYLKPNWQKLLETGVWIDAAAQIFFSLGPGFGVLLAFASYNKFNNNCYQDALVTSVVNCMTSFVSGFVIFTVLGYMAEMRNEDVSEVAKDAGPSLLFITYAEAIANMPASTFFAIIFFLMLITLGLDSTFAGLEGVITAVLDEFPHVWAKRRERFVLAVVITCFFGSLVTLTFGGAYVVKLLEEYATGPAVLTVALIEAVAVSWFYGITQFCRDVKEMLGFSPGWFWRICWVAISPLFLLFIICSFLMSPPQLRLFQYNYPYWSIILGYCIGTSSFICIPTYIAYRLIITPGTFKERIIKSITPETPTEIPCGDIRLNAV
T1 sequence (P14416 whole entry): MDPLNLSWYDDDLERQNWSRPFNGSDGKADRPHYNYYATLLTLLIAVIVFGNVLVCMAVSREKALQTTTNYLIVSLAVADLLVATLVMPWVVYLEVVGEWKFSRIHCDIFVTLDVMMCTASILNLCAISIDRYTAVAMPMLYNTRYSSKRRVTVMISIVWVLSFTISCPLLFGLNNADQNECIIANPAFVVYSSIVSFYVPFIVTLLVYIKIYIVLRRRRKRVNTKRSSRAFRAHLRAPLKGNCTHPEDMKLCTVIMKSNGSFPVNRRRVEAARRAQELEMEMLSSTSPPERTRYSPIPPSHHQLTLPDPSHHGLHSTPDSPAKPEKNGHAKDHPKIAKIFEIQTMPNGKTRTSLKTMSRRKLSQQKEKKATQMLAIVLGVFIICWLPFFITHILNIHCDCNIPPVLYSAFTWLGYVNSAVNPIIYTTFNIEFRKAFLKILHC

Row | SMILES | Ki [1] [µM] | Ki [2] [µM] | Increase in human potency compared to mescaline (5) [3] [fold] | Ki [4] [µM] | Ki [5] [µM] | Ki [6] [µM] | Head twitch response [7]
1 | COc1cc(CCN)cc(OC)c1OC(F)(F)F [compound 13, 4-trifluoromethoxy-3,5-dimethoxyphenethylamine] | > 6.3 | 3.2 | > 9 | > 8.5 | 2.2 | > 7.5 | –
2 | COc1cc(CC(C)N)cc(OC)c1OC(F)F (stereo not shown) [compound 14, 4-difluoromethoxy-3,5-dimethoxyamphetamine] | > 6.3 | > 8.7 | – | > 8.5 | > 5.6 | > 7.5 | –
3 | COc1cc(CCN)cc(OC)c1OCC(F)(F)F [compound 18, 3,5-dimethoxy-4-(2,2,2-trifluoroethoxy)phenethylamine] | > 6.3 | > 8.7 | – | > 8.5 | > 5.6 | > 7.5 | –
4 | COc1cc(CCN)cc(OC)c1OC(CF)CF [compound 23, 3,5-dimethoxy-4-(1,3-difluoroprop-2-yloxy)phenethylamine] | > 6.3 | > 8.7 | – | > 8.5 | > 5.6 | > 7.5 | –
5 | COc1cc(CCN)cc(OC)c1OCCCF [compound 25, 3,5-dimethoxy-4-(3-fluoropropoxy)-phenethylamine] | > 6.3 | > 8.7 | – | > 8.5 | > 5.6 | > 7.5 | –
6 | COc1cc(CCN)cc(OC)c1OCCC(F)(F)F [compound 26, 3,5-dimethoxy-4-(3,3,3-trifluoropropoxy)phenethylamine] | > 6.3 | > 8.7 | – | > 8.5 | > 5.6 | > 7.5 | –
7 | CCCOc1c(OC)cc(CC(C)N)cc1OC (stereo not shown) [compound 28, 3,5-dimethoxy-4-propyloxyamphetamine] | > 6.3 | > 8.7 | – | > 8.5 | > 5.6 | > 7.5 | induced a head twitch response with almost identical potency
8 | COc1cc(CCN)cc(OC)c1OC1CC1 [compound 29, 4-cyclopropyloxy-3,5-dimethoxyphenethylamine] | > 6.3 | > 8.7 | – | > 8.5 | 4 | > 7.5 | –
9 | C=C(C)COc1c(OC)cc(CCN)cc1OC [compound 32, 3,5-dimethoxy-4-methallyloxyphenethylamine] | > 6.3 | > 8.7 | – | > 8.5 | 5.1 | > 7.5 | –
10 | COc1cc(CCN)cc(OC)c1OCc1ccccc1 [compound 33, 4-benzyloxy-3,5-dimethoxyphenethylamine] | > 6.3 | > 8.7 | – | > 8.5 | 4.4 | > 7.5 | –
